Measured values as given in article PMC11106745 (ACS Chemical Biology, 2024).
Values joined by “and” are separate entries in the source; they are usually repeats but may differ in a detail not shown here. Equal values may be shown once. Read-outs that look alike come from different tables or passages of the source.

What was measured:
CHIKV Mac [1] = biological target: T1, CHIKV Mac (Chikungunya virus, UniProt Q8JUX6); test: biochemical; type: binding; conditions: for koff: read-out: kdis
SARS-CoV-2 Mac1 [2] = biological target: T2, SARS-CoV-2 Mac1 (Severe acute respiratory syndrome coronavirus 2, UniProt P0DTD1); test: biochemical; type: binding; conditions: IC50
VEEV Mac = VEEV Mac (Venezuelan equine encephalitis virus, UniProt P27282); test: biochemical; type: binding; conditions: for koff: read-out: kdis
Chain of VEEV Mac (P27282 1330-1489 limits assumed): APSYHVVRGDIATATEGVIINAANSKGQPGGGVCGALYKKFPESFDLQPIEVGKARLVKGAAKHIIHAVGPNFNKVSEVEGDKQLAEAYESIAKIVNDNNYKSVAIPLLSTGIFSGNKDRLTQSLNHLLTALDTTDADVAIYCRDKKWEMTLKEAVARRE

MERS-CoV Mac1 [3] = biological target: T3, MERS-CoV Mac1 (Middle East respiratory syndrome-related coronavirus, UniProt K9N7C7); test: biochemical; type: binding; conditions: for koff: read-out: kdis
T3 sequence (K9N7C7 1110-1276 limits assumed): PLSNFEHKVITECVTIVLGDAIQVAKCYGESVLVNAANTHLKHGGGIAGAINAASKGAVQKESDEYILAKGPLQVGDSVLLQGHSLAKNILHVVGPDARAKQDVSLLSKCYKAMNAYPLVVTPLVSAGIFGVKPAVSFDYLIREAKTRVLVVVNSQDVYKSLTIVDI

MERS-CoV Mac1 [4] = biological target: T3, MERS-CoV Mac1; test: biochemical; type: binding
CHIKV Mac [5] = biological target: T1, CHIKV Mac; test: biochemical; type: binding
SARS-CoV-2 Mac1 [6] = biological target: T2, SARS-CoV-2 Mac1; test: biochemical; type: binding; conditions: for koff: read-out: kdis
SARS-CoV-2 Mac1 [7] = biological target: T2, SARS-CoV-2 Mac1; conditions: cited from earlier work
SARS-CoV-2 Mac1 [8] = biological target: T2, SARS-CoV-2 Mac1; conditions: cited from earlier work; remark: listed apart in the source
SARS-CoV-2 Mac1 [9] = biological target: T2, SARS-CoV-2 Mac1; conditions: cited from earlier work; remark: listed apart in the source

T1 sequence (Q8JUX6 1334-1493 limits assumed): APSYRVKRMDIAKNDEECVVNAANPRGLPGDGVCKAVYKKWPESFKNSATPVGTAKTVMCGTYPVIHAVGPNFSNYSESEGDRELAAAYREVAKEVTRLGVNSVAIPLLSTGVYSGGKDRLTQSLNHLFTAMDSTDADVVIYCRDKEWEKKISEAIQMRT

SMILES | kon (CHIKV Mac [1]) | Kd (CHIKV Mac [1]) | koff (CHIKV Mac [1]) | IC50 (SARS-CoV-2 Mac1 [2]) | kon (VEEV Mac) | koff (VEEV Mac) | kon (MERS-CoV Mac1 [3]) | Kd (MERS-CoV Mac1 [3]) | koff (MERS-CoV Mac1 [3]) | IC50 (MERS-CoV Mac1 [4]) | IC50 (CHIKV Mac [5]) | Kd (SARS-CoV-2 Mac1 [6]) | kon (SARS-CoV-2 Mac1 [6]) | koff (SARS-CoV-2 Mac1 [6]) | fold more potent than biotin-ADPr based on Kd (SARS-CoV-2 Mac1 [6]) | other results
Nc1ncnc2c1ncn2[C@@H]1O[C@H](COP(=O)(O)OP(=O)(O)OC[C@H]2O[C@H](n3cc(COCCOCCOCCOCCNC(=O)CCCC[C@@H]4SC[C@@H]5NC(=O)N[C@@H]54)nn3)[C@H](O)[C@@H]2O)[C@@H](O)[C@H]1O [biotin-ADPr] | 120000 ± 3000 M⁻¹ s⁻¹ | 5300 ± 200 nM | 0.65 ± 0.02 s⁻¹ | 3500 nM | 140000 ± 8000 M⁻¹ s⁻¹ | 0.79 ± 0.04 s⁻¹ | 320000 ± 10000 M⁻¹ s⁻¹ | 2100 ± 100 nM | 0.7 ± 0.03 s⁻¹ | 6800 nM | 22200 nM | 19600 nM | 53000 ± 3000 M⁻¹ s⁻¹ | 1 ± 0.05 s⁻¹ |  | 
N#C[C@@]1(c2ccc3c(N)ncnn23)O[C@H](COP(=O)(O)OP(=O)(O)OC[C@H]2O[C@H](n3cc(COCCOCCOCCOCCNC(=O)CCCC[C@@H]4SC[C@@H]5NC(=O)N[C@@H]54)nn3)[C@H](O)[C@@H]2O)[C@@H](O)[C@H]1O [biotin-NDPr] | 180000 ± 4000 M⁻¹ s⁻¹ | 331 nM and 330 nM | 0.06 ± 0.0009 s⁻¹ | 57 nM | 580000 ± 6000 M⁻¹ s⁻¹ | 0.076 ± 0.0008 s⁻¹ | 1.3e+06 ± 50000 M⁻¹ s⁻¹ | 210 ± 10 nM | 0.27 ± 0.01 s⁻¹ | 1200 nM | 950 nM | 280 ± 10 nM | 310000 ± 5000 M⁻¹ s⁻¹ | 0.085 ± 0.001 s⁻¹ | ~70 fold | fold stronger than biotin-ADPr (CHIKV Mac [1]): ~15 fold
Nc1ncnc2c1ncn2[C@@H]1O[C@H](COP(=O)(O)OP(=O)(O)OC[C@H]2O[C@H](Oc3ccc(Cn4cc(COCCOCCOCCOCCNC(=O)CCCC[C@@H]5SC[C@@H]6NC(=O)N[C@@H]65)nn4)cc3)[C@H](O)[C@@H]2O)[C@@H](O)[C@H]1O [biotin-Ph-ADPr] | 19000 ± 500 M⁻¹ s⁻¹ | 6200 ± 200 nM | 0.12 ± 0.002 s⁻¹ | 130 nM | 520000 ± 6000 M⁻¹ s⁻¹ | 0.083 ± 0.0008 s⁻¹ | 1.1e+06 ± 30000 M⁻¹ s⁻¹ | 100 ± 4 nM | 0.11 ± 0.003 s⁻¹ | 310 nM | > 10000 nM | 420 ± 10 nM | 270000 ± 5000 M⁻¹ s⁻¹ | 0.11 ± 0.002 s⁻¹ | ~50 fold | fold decrease in Kd compared to biotin-ADPr (VEEV Mac): 30 fold; fold decrease in Kd compared to biotin-ADPr (MERS-CoV Mac1 [3]): 20 fold
N#C[C@@]1(c2ccc3c(N)ncnn23)O[C@H](COP(=O)(O)OP(=O)(O)OC[C@H]2O[C@H](Oc3ccc(Cn4cc(COCCOCCOCCOCCNC(=O)CCCC[C@@H]5SC[C@@H]6NC(=O)N[C@@H]65)nn4)cc3)[C@H](O)[C@@H]2O)[C@@H](O)[C@H]1O [biotin-Ph-NDPr] | 190000 ± 6000 M⁻¹ s⁻¹ | 570 ± 20 nM | 0.11 ± 0.003 s⁻¹ | 11 nM | 820000 ± 7000 M⁻¹ s⁻¹ | 0.014 ± 6e-05 s⁻¹ | 1.8e+06 ± 10000 M⁻¹ s⁻¹ | 17.2 nM and 17 nM | 0.031 ± 0.0002 s⁻¹ | 100 nM | 860 nM | 24 nM | 300000 ± 3000 M⁻¹ s⁻¹ | 0.0071 s⁻¹ | ~1000 fold | fold decrease in Kd compared to biotin-ADPr (VEEV Mac): 400 fold; fold decrease in Kd compared to biotin-ADPr (MERS-CoV Mac1 [3]): ~100 fold; kdis fold smaller than that of biotin-ADPr (SARS-CoV-2 Mac1 [6]): more than 100 fold
O=C(O)[C@H](Cc1c[nH]c2ccccc12)Nc1ncnc2[nH]ccc12 [compound 15c] |  |  |  |  |  |  |  |  |  |  |  |  |  |  |  | IC50 (SARS-CoV-2 Mac1 [7]): 6100 nM
COC(=O)c1c(NC(=O)[C@@H]2CCC[C@@H](C(=O)O)C2)sc2c1CCCCCC2 [compound 27] |  |  |  |  |  |  |  |  |  |  |  |  |  |  |  | IC50 (SARS-CoV-2 Mac1 [8]): 2100 nM
Nc1ncnc2c1ncn2C1OC(COP(=O)(O)OP(=O)(O)OCC2OC(Oc3ccc([N+](=O)[O-])cc3)C(O)C2O)C(O)C1O (stereo not drawn) [pNP-ADPr] |  |  |  |  |  |  |  |  |  |  |  |  |  |  |  | IC50 (SARS-CoV-2 Mac1 [9]): 370 nM; fold more potent than ADPr (SARS-CoV-2 Mac1 [9]): > 20 fold
